Test results: patent US6514981B1, “Methods of modulating tyrosine protein kinase function with indolinone compounds” (Sugen, Inc., priority 1998, dated 2003)

Legend:
Type in all cases: cell-based
IGF-1 receptor = target: T1, IGF-1 receptor (Homo sapiens, UniProt P08069); assay: IGF-1 receptor phosphorylation assay in cells (ELISA); conditions: 3T3-L1/IGF-1R cells, IGF-1 stimulation
T1 construct: expressed in transfected cells; host or cells: 3T3-L1/IGF-1R (also written NIH3T3/IGF-1R)
Procedure: The following protocol was used to measure phosphotyrosine level on IGF-1 receptor, which indicates IGF-1 receptor tyrosine kinase activity.
a. The cell line used in this assay is 3T3-L1/IGF-1R, a cell line genetically engineered to overexpresses IGF-1 receptor.
2. Resuspend the cells in fresh DMEM+10% FBS+2mM L-Glutamine, and transfer to 96-well tissue culture plate (Corning, 250806-96) at 20,000 cells/well (100 μL/well). Incubate for 1 day then replace medium to serum-free medium (90/μL) and incubate in 5% CO2 and 37° C. overnight.
1. Coat the ELISA plate (Corning 25805-96) with Anti-IGF-1R Antibody at 0.5 μg/well in 100 μL PBS at least 2 hours.
2. Dilute drug stock (in 100% DMSO) 1:10 with DMEM in 96-well poly-propylene plate, and transfer 10 μL/well of this solution to the cells to achieve final drug dilution 1:100, and final DMSO concentration of 1.0%. Incubate the cells in 5% C02 at 37° C. for 2 hours.
4. After drug incubation for two hours, transfer 10 μL/well of 200 nM IGF-1 Ligand m PBS to the cells (Final Conc.=20 nM), and incubate at 5% CO2 at 37° C. for 10 minutes.
5. Remove media and add 100 μL/well HNTG* and shake for 10 minutes. Look at cells under microscope to see if they are adequately lysed.
6. […]
The IC50 values measured in the IGF-1 receptor phosphorylation assay for the compound of formula VI are depicted in Table 4: […]

C6 cells = assay: Growth of C6 cells (SRB); conditions: Rattus norvegicus, 2%
Text: The assay is the same as the assay set forth in EXAMPLE 10, except that C6 cells (ATCC 107) are used instead of A431 cells.
Compound of formula VI inhibited the growth rate of C6 cells as illustrated in Table 11.

A431 cells = assay: Growth of A431 cells (SRB); conditions: Homo sapiens, A-431, 72 h, 2% calf serum, 3 days
Procedure: The following assay measures growth rates for A43 1 cells.
2% calf serum/DMEM+2 mM glutamine, Pen/Strep
2. Dilute cells in growth medium to 60,000 cell/mL. Transfer 100 μL of cells to each well in a 96-well flat bottom plate to give 6000 cells/well.
1. In a 96-well round bottom plate, add 120 μL of growth medium containing 2×final % DMSO found in highest screening concentration of compound to columns 1 to 11. For example, if the highest concentration is […], ad this is made from a 100 mM stock, 1×DMSO is 0.1%, so 2×DMSO is 0.2%. This plate is used to titrate out the compound, 4 rows per compound.
2. In a sterile 15 mL tube, make a 2×solution of the highest screening concentration of compound in growth medium plus 2×DMSO. 1 mL per cell line is needed. The starting concentration of the compound is usually 100 μM but this concentration may vary depending upon the solubility of the compound.
3. Transfer 240 μL of the 2×starting compound solution to qudruplicate wells in column 12 of the 96-well round bottom plate. Do 1:2 serial dilutions across the plate from right to left by transferring […] from column 12 to column 11, column 11 to 10 and so on through column 2. […]
6. Read plates on Dynatech ELISA Plate REader at 570 nm with reference at 630 nm. […]

3T3EGFR = assay: BrdU incorporation assay, 3T3EGFR, PDGF

T1 sequence (P08069 31-1367): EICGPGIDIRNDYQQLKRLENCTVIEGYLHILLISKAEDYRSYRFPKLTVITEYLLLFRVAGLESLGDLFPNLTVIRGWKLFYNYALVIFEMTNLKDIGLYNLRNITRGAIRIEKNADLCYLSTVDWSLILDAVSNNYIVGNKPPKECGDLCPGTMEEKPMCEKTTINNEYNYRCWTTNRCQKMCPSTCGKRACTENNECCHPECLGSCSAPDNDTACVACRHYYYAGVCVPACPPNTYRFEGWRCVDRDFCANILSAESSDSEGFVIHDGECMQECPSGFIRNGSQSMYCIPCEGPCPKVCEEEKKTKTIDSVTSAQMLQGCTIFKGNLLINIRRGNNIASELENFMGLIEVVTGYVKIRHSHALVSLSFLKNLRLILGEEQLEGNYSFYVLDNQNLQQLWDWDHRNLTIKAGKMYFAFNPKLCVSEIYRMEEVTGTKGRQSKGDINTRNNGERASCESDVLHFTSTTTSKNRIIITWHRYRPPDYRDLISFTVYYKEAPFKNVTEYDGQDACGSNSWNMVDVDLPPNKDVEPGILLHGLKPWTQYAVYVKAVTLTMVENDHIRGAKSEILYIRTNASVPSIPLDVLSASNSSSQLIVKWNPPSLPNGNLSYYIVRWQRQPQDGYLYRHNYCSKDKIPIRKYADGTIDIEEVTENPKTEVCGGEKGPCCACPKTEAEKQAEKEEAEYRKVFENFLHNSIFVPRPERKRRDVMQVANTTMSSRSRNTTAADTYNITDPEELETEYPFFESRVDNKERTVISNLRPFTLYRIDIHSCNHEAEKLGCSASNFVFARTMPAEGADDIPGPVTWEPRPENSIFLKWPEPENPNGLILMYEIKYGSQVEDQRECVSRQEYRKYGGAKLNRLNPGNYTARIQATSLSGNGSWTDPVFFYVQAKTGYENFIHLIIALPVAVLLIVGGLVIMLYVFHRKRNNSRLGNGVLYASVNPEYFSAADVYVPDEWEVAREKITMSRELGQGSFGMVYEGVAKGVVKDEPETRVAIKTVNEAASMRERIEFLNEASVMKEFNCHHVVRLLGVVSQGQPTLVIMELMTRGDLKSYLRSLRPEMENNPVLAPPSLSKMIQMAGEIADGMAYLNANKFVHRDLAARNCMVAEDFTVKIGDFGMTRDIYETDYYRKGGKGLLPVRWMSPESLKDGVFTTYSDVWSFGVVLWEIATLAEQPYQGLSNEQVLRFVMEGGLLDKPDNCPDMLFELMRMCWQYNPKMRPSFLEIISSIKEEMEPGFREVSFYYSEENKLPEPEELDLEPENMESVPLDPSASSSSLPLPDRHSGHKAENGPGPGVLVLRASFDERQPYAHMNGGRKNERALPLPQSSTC

**Q.** What does the source list for `Cc1cc(/C=C2/C(=O)Nc3ccccc32)c(C)c2c1[nH]c1ccccc12` [VI]?
**A.** IC50 (IGF-1 receptor): 8.52 µM; IC50 (C6 cells): 1.55 µM; IC50 (A431 cells): 0.712 µM; IC50 (3T3EGFR): 7 µM
